# According to patent publication US20060276407A1, “Methods of treating hepatitis C virus” (Schering Corporation, priority 2005, published 2006):
# Values joined by “and” are separate entries in the source; they are usually repeats but may differ in a detail not shown here. Equal values may be shown once. Read-outs that look alike come from different tables or passages of the source.
# Test: Food-effect crossover bioavailability study, 600 mg fed vs fasted, healthy adult subjects (Example 2)
# Format: in vivo, human
# Conditions: for Plasma concentration at 8 hours / Plasma concentration at 12 hours: individual subjects; for concentration at 8 hours / concentration at 12 hours / Vd/F / AUC / Cmax / half-life / Tmax: both sexes, human, plasma, po, 600 mg; for half-life: read-out: t½ (converted); for Tmax: median (range)
# Protocol: This was a randomized, open-label, single-dose, two-treatment (fed or fasted), two-period, two-sequence crossover study of the effect of food on the bioavailability of compound of Formula Ia in 23 healthy adult male and female subjects. The primary pharmacokinetic parameters were AUC(l) and Cmax for compound of Formula Ia. The study included a 7-day wash-out period between treatment periods.
# Subjects were confined at the study site at least 14 hours prior to each treatment (Day −1). On the morning of Day 1, following a 10-hour overnight fast, subjects were randomized to receive in a particular order Treatment A and Treatment B: • Treatment A: compound of Formula Ia 600 mg (6×100 mg capsules) PO following an overnight fast. • Treatment B: compound of Formula Ia 600 mg (6×100 mg capsules) PO within 20 minutes following the completion of a standard high-fat breakfast. There was a 7-day wash-out period between receiving treatments.
# Subjects receiving Treatment A received a formulation of compound of Formula Ia comprised of compound of Formula Ia and a pharmaceutically acceptable carrier, such as microcrystalline cellulose, while continuing to fast, while subjects randomized to Treatment B consumed a standardized high-fat meal prior to compound administration (within 20 minutes prior to the compound administration). The capsules along with approximately 240 mL of water were swallowed whole, not chewed or crushed. […] Water was permitted as desired except for 1 hour before and after compound administration. A washout period of at least 7 days separated the two treatment periods. Upon return to the clinic, subjects underwent the same procedures as the first period and continued the randomization sequence (subjects who received compound of Formula Ia fasted in Period 1 and then received compound of Formula Ia under fed conditions in Period 2, and vice versa).
# Blood samples (7 mL each) for the determination of compound of Formula Ia levels were drawn immediately prior to dosing (0 hour), and at 0.5, 1, 1.5, 2, 2.5, 3, 4, 5, 6, 8, 12, 24, 36, and 48 hours after dosing. The blood samples were collected into tubes containing EDTA. The samples were centrifuged at 1500 g for 10 minutes to obtain plasma and the plasma samples were frozen at −20° C. and maintained in the frozen state until assayed.
# Plasma concentrations of compound of Formula Ia were determined using a validated liquid chromatography tandem mass spectrometry (LC-MS/MS) method. The assay lower limit of quantitation (LLOQ) was 0.50 ng/mL and the method was validated over the concentration range of 0.50 to 1000 ng/mL.
# The mean and percent coefficient of variation (% CV) were calculated for plasma concentrations of compound of Formula Ia at each time point. Concentration values less than the assay LLOQ were reported as, and set to zero in the tables and calculations. The plasma concentration-time data for compound of Formula Ia were subjected to pharmacokinetic analysis by noncompartmental methods using WinNonlin software. Nominal sampling times were used for pharmacokinetic analysis, since none of the pharmacokinetic sampling time deviations were >10% of the nominal times. For each subject, the following pharmacokinetic parameters were determined for compound of Formula Ia: maximum plasma concentration (Cmax), time of maximum observed plasma concentration (Tmax), the final quantifiable sampling time (tf), area under the plasma concentration-time curve from time 0 to tf (AUC[tf]), AUC(l) (AUC[tf]+ C[tf]estimated/K) and Vd/F. The K and C(tf)estimated are defined as terminal elimination rate constant and estimated concentration at final quantifiable sample, respectively. Terminal phase half-life (t½=ln 2/K) and apparent clearance (CLUF=Dose/AUC[l]) were also determined. Cmax, Tmax and tf were the observed values. […]
# [1] = 600 mg PO, fasted, mean, balanced data
# [2] = 600 mg PO, fed (high-fat breakfast), mean, balanced data
# [3] = 600 mg PO, standardized high-fat meal
smiles,measurement,setting,value
"CC(C)(C)NC(=O)N[C@H](C(=O)N1C[C@H]2[C@@H]([C@H]1C(=O)NC(CC1CCC1)C(=O)C(N)=O)C2(C)C)C(C)(C)C (mixture of isomers) [Formula Ia, (1 R, 5S)-N-[3-Amino-1-(Cyclobutylmethyl)-2,3-Dioxopropyl]-3-[2(S)-[[[(1,1-Dimethylethyl)Amino]Carbonyl]Amino]-3,3-Dimethyl-1-Oxobutyl]-6,6-Dimethyl-3-Azabicyclo[3.1.0]Hexan-2(S)-Carboxamide]","Apparent mean Vd/F, fed versus fasted states",600 mg PO,about five
same,"Median concentration at the 8-hour time point, fed state relative to fasted state",600 mg PO,more than 4 fold
same,"Median concentration at the 12-hour time point, increase in fed state relative to fasted state",600 mg PO,2 fold
same,AUC(l) Ratio Estimate (fed to fasted),"600 mg PO, Female (n = 10)",225%
same,AUC(tf) Ratio Estimate (fed to fasted),"600 mg PO, Female (n = 10)",229%
same,Cmax Ratio Estimate (fed to fasted),"600 mg PO, Female (n = 10)",170%
same,AUC(l) Ratio Estimate (fed to fasted),"600 mg PO, Male (n = 10)",202%
same,AUC(tf) Ratio Estimate (fed to fasted),"600 mg PO, Male (n = 10)",205%
same,Cmax Ratio Estimate (fed to fasted),"600 mg PO, Male (n = 10)",155%
same,Plasma concentration at 8 hours,"600 mg PO, fasted",37.5 ng/mL and 18.7 ng/mL and 37.4 ng/mL and 13.4 ng/mL and 77.9 ng/mL and 39.0 ng/mL and 46.6 ng/mL and 50.0 ng/mL and 66.8 ng/mL and 19.3 ng/mL and 8.50 ng/mL and 27.3 ng/mL and 24.8 ng/mL and 24.1 ng/mL and 81.3 ng/mL and 58.0 ng/mL and 33.5 ng/mL and 28.7 ng/mL and 27.8 ng/mL
same,Plasma concentration at 12 hours,"600 mg PO, fasted",20.9 ng/mL and 8.12 ng/mL and 27.0 ng/mL and 4.90 ng/mL and 21.3 ng/mL and 16.3 ng/mL and 18.3 ng/mL and 20.6 ng/mL and 11.4 ng/mL and 4.46 ng/mL and 3.11 ng/mL and 13.2 ng/mL and 9.56 ng/mL and 19.6 ng/mL and 26.6 ng/mL and 14.3 ng/mL and 9.33 ng/mL and 9.50 ng/mL and 10.7 ng/mL
same,CL/F,[1],393 L/h
same,CL/F,[2],179 L/h
same,Plasma concentration at 8 hours,"600 mg PO, fed",33.8 ng/mL and 62.2 ng/mL and 190 ng/mL and 92.4 ng/mL and 442 ng/mL and 81.4 ng/mL and 54.3 ng/mL and 675 ng/mL and 392 ng/mL and 949 ng/mL and 46.1 ng/mL and 426 ng/mL and 283 ng/mL and 55.6 ng/mL and 164 ng/mL and 612 ng/mL and 54.8 ng/mL and 447 ng/mL and 33.6 ng/mL
same,Plasma concentration at 12 hours,"600 mg PO, fed",7.34 ng/mL and 11.2 ng/mL and 27.8 ng/mL and 13.6 ng/mL and 37.2 ng/mL and 13.9 ng/mL and 33.5 ng/mL and 384 ng/mL and 184 ng/mL and 54.2 ng/mL and 6.70 ng/mL and 22.2 ng/mL and 140 ng/mL and 10.4 ng/mL and 87.3 ng/mL and 109 ng/mL and 9.17 ng/mL and 48.8 ng/mL and 7.09 ng/mL
same,AUC(l) Ratio Estimate (fed to fasted),"600 mg PO, n = 20",214%
same,AUC(tf) Ratio Estimate (fed to fasted),"600 mg PO, n = 20",217%
same,Cmax Ratio Estimate (fed to fasted),"600 mg PO, n = 20",162%
same,Increase of Cmax in the fed state,[3],62%
same,Increase of mean relative bioavailability (AUC) in the fed state relative to fasted,[3],over 100%
same,Safety profile (treatment emergent and treatment related AEs),"600 mg oral dose, both fed and fasted states",low frequency of treatment emergent and treatment related AEs
same,concentration at 8 hours,"600 mg PO, fasted, Max",81.3 ng/mL
same,concentration at 12 hours,"600 mg PO, fasted, Max",27 ng/mL
same,concentration at 8 hours,"600 mg PO, fasted, Min",8.5 ng/mL
same,concentration at 12 hours,"600 mg PO, fasted, Min",3.11 ng/mL
same,concentration at 8 hours,"600 mg PO, fasted, mean",37.9 ng/mL
same,concentration at 12 hours,"600 mg PO, fasted, mean",14.2 ng/mL
same,Vd/F,[1],6730 L
same,AUC,"600 mg PO, fasted, mean, balanced data, read-out: AUC(l)",1750 ng·h/mL
same,AUC,"600 mg PO, fasted, mean, balanced data, read-out: AUC(tf)",1720 ng·h/mL
same,Cmax,"600 mg PO, fasted, mean, balanced data, read-out: Cmax",448 ng/mL
same,half-life,[1],12 h
same,concentration at 8 hours,"600 mg PO, fasted, median",33.5 ng/mL
same,concentration at 12 hours,"600 mg PO, fasted, median",13.2 ng/mL
same,Tmax,"600 mg PO, fasted, balanced data",2 h
same,AUC,"600 mg PO, fasted, n = 20, read-out: AUC(l), model-based (least square) mean",1650 ng·h/mL
same,AUC,"600 mg PO, fasted, n = 20, read-out: AUC(tf), model-based (least square) mean",1620 ng·h/mL
same,Cmax,"600 mg PO, fasted, n = 20, read-out: Cmax, model-based (least square) mean",418 ng/mL
same,Vd/F,[2],1150 L
same,AUC,"600 mg PO, fed (high-fat breakfast), mean, balanced data, read-out: AUC(l)",3700 ng·h/mL
same,AUC,"600 mg PO, fed (high-fat breakfast), mean, balanced data, read-out: AUC(tf)",3660 ng·h/mL
same,Cmax,"600 mg PO, fed (high-fat breakfast), mean, balanced data, read-out: Cmax",790 ng/mL
same,half-life,[2],4.72 h
same,Tmax,"600 mg PO, fed (high-fat breakfast), balanced data",5 h
same,concentration at 8 hours,"600 mg PO, fed, Max",949 ng/mL
same,concentration at 12 hours,"600 mg PO, fed, Max",384 ng/mL
same,concentration at 8 hours,"600 mg PO, fed, Min",33.6 ng/mL
same,concentration at 12 hours,"600 mg PO, fed, Min",6.7 ng/mL
same,concentration at 8 hours,"600 mg PO, fed, mean",268 ng/mL
same,concentration at 12 hours,"600 mg PO, fed, mean",63.5 ng/mL
same,concentration at 8 hours,"600 mg PO, fed, median",164 ng/mL
same,concentration at 12 hours,"600 mg PO, fed, median",27.8 ng/mL
same,AUC,"600 mg PO, fed, n = 20, read-out: AUC(l), model-based (least square) mean",3530 ng·h/mL
same,AUC,"600 mg PO, fed, n = 20, read-out: AUC(tf), model-based (least square) mean",3500 ng·h/mL
same,Cmax,"600 mg PO, fed, n = 20, read-out: Cmax, model-based (least square) mean",678 ng/mL
